Experiments:
human Ly6K protein = molecular target: T1, human Ly6K protein (Homo sapiens, UniProt Q17RY6); assay: Surface plasmon resonance binding to immobilized Ly6K (Biacore T100)
T1 construct: correspond to residues 18-138, which constitute the mature form of Ly6K; His tag (N); made in house; host or cells: E. coli BL21DE
T1 sequence (Q17RY6 18-138): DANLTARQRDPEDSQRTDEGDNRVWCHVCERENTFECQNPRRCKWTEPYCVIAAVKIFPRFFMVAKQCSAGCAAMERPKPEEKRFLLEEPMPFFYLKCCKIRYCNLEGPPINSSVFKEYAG
Procedure: (§1) FIG. 11: Small molecule binders of Ly6K. (A) Mature form of Ly6E, Ly6D and Ly6K were cloned in pET24a N-term His tag vector (Epoch Biosciences); expressed in BL21DE E. coli; purified recombinant protein was prepared using histidine column in using a batch purification method and eluted in 500 mM imidazole PBS, dialyzed in PBS. 5 μl of eluate was run on the 15% SDS-PAGE showing the purity with expected size protein of single band. (B) Structure of NSC243928. (G) Structure of NSC11150. (C-F; H-K) Representative surface plasmon resonance (SPR) sensorgrams show time on X-axis and SPR binding response on Y-axis. […] The corresponding data for NSC11150 are shown in corresponding lower panel.
We used surface plasmon resonance to identify small molecule binders of Ly6K. We screened a panel of 2000 small molecules, obtained from the Developmental Therapeutic Program (DTP, NCI). […] These five molecules were further tested for their ability to induce cell death, TGFβ1/Smad2/3 phosphorylation, IFNγ/Stat1 phosphorylation and PD-L1 protein expression. NSC243928 and NSC11150 were selected for further study on the basis of specificity and selectivity in bio-assays and structural flexibility, which allow future modifications required for in-depth studies (described in FIG. 11). The small molecule NSC243928 has been previously used in an in vivo anti-tumor screen by the NCI on a L1210 leukemia model in BDF1 syngeneic mice, a standard model used between 1955 and 1975. The average survival in this tumor model is 2-3 weeks. Treatment with NSC243928 increased survival benefit from 30% to 100% in a dose dependent manner. […] NSC11150 was not tested in in-vivo or in-vitro anti-tumor screens. […] As discussed infra, NSC243928 and NSC11150 inhibit TGFβ and PD-L1 pathways in a Ly6K dependent manner, indicating a mechanistic basic for the novel activities of these compounds (please see FIG. 11, 12). These experiments provide proof of the principle that small molecule targeting of Ly6K will have functional consequences and potentially lead to a better outcome in cancer treatment. […]

Ly6E = molecular target: T2, Ly6E (Homo sapiens, UniProt Q16553); assay: Surface plasmon resonance binding to Ly6E
T2 construct: Mature form of Ly6E, Ly6D and Ly6K were cloned in pET24a N-term His tag vector; His tag (N); made in house; host or cells: E. coli BL21DE
T2 sequence (Q16553 21-101 limits assumed): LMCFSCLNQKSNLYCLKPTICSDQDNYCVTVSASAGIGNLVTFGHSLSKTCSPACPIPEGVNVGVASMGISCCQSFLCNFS
Procedure: as §1
(§2) We performed a surface plasmon resonance assay using the Biacore T100 by immobilizing the purified human Ly6K protein on the surface of a CM5 chip and screening the binding with a small molecule library containing 2000 compounds (Developmental Therapeutics Program, NCI). An initial screening of molecules was performed at 1 or 10 μM compound, based on solubility. We used a model that compares the actual binding maximum (RUactual) with the theoretical binding maximum (RUtheor). […] Hits (RUactual to RUtheor of 0.7-2.0) were then reviewed by a team of medicinal chemists and those with structural potential were selected for further study. […]

Ly6D = molecular target: T3, Ly6D (Homo sapiens, UniProt Q14210); assay: Surface plasmon resonance binding to Ly6D
T3 construct: Mature form of Ly6E, Ly6D and Ly6K were cloned in pET24a N-term His tag vector; His tag (N); made in house; host or cells: E. coli BL21DE
T3 sequence (Q14210 21-98 limits assumed): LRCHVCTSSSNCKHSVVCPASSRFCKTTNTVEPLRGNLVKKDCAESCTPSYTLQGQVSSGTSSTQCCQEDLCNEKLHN
Procedure: as §1, §2

[1] = tested on: MDA-MB-231 cells (control and Ly6K knockdown); assay: Cell titer assay of cell growth / cell death; format: cell-based, human; conditions: for Cell growth: 72 hours
Procedure: FIG. 12: Effect of small molecule binders of Ly6K. […] Cell titer assay was performed to measure cell growth. (B) Cells were serum starved and treated with 100 ng/ml IFNγ with 2 μM drugs. PD-L1 was measure in live cells (using a zombie live-dead stain) as described in FIG. 3A. The graph was plotted from three experiments. (C, D) Indicated cells were allowed to attach, serum starved overnight and then treated with TGFβ (C) or IFNγ (D) in the presence of 2 μM drug for 30 minutes and western blot analysis was performed. The *** represents p<0.0005 and NS=non-significant in a two-tailed student T-test.
(§3) NSC243928 inhibited the TGFβ1 induced phosphorylation of Smad2/3; NSC11150 had no effect on TGFβ1/Smad2/3 signaling (FIG. 12C). NSC11150 inhibited IFNγ induced phosphorylation of Stat1; NSC243928 had no effect on IFNγ/Stat1 signaling (FIG. 12D).

PD-L1 = assay: IFNγ-induced PD-L1 protein expression in live cells (flow cytometry); format: cell-based, human; conditions: control cells, 100 ng/ml IFNγ, 2 μM drug
Procedure: FIG. 3: Ly6K is required for IFNγ/PD-L1 pathway. (A) Indicated cells were serum starved prior to treatment with IFNγ 100 ng/ml overnight. Cells were labeled with anti-PD-L1 BV540 antibody or isotype control antibody prior to fixation to assess the cell surface expression of PD-L1 protein. Percentage of high PD-L1 cells were plotted in a bar graph from three different experiments and subjected to a two tailed student T-test, wherein p<0.05 is considered significant. (B) Western blotting analysis for indicated proteins. (C) Hypothesized effect of Ly6K on IFNγ/Stat1 pathway leading to increased PD-L1.
FIG. 12: Effect of small molecule binders of Ly6K. (A) Indicated cells were seeded and allowed to attach overnight, then treated with 2 μM drugs for 72 hours. Cell titer assay was performed to measure cell growth. (B) Cells were serum starved and treated with 100 ng/ml IFNγ with 2 μM drugs. PD-L1 was measure in live cells (using a zombie live-dead stain) as described in FIG. 3A. The graph was plotted from three experiments. (C, D) Indicated cells were allowed to attach, serum starved overnight and then treated with TGFβ (C) or IFNγ (D) in the presence of 2 μM drug for 30 minutes and western blot analysis was performed. The *** represents p<0.0005 and NS=non-significant in a two-tailed student T-test. […]

TGFβ1/Smad2/3 signaling = assay: TGFβ1-induced Smad2/3 phosphorylation (western blot); format: cell-based, human; conditions: 2 μM drug, 30 minutes
Procedure: (§4) FIG. 12: Effect of small molecule binders of Ly6K. (A) Indicated cells were seeded and allowed to attach overnight, then treated with 2 μM drugs for 72 hours. Cell titer assay was performed to measure cell growth. (B) Cells were serum starved and treated with 100 ng/ml IFNγ with 2 μM drugs. PD-L1 was measure in live cells (using a zombie live-dead stain) as described in FIG. 3A. The graph was plotted from three experiments. (C, D) Indicated cells were allowed to attach, serum starved overnight and then treated with TGFβ (C) or IFNγ (D) in the presence of 2 μM drug for 30 minutes and western blot analysis was performed. The *** represents p<0.0005 and NS=non-significant in a two-tailed student T-test.
as §3

IFNγ/Stat1 signaling = assay: IFNγ-induced Stat1 phosphorylation (western blot); format: cell-based, human; conditions: 2 μM drug, 30 minutes
Procedure: as §4, §3

4T1 mammary tumor = 4T1 mammary tumor growth in syngeneic mouse model; format: in vivo, mice (Balb/c); conditions: 5 mg/kg/i.p. after tumor establishment at 50-70 mm^3
Text: FIG. 4: Ly6K is required for tumor growth in syngeneic mammary tumor models. (A) The qRT-PCR analysis using […] gene expression assay for mRNA levels in scrambled shRNA (Con) and Ly6K knockdown (Ly6K sh) cells. (B) The western blot analysis (cell signaling antibodies). (C) For 4T1 model, 20K cells/site in Balb/c mice and for E0771, 500K cells/site in C57BL/6 syngeneic mice were transplanted into lower mammary fat pad by subcutaneous injection (number of mice 10 per cell line pair). Tumor measurements were performed using a Vernier caliper. The tumor volumes were calculated using equation 1⁄2*length*(width*width). ** indicates p<0.001 and NS=non-significant (p>0.05) in a two tailed student T-test. FIG. 5: Effect of small molecules on in vivo tumor growth. (A) NCI data-Indicated doses of NSC243928 in saline were given by intraperitoneal route (i.p.) every day for 9 days to BIDF syngeneic mice carrying […] leukemia cells. Each group has 6 mice. Mouse were monitored for 30 days after drug treatment. […] The ** represents p<0.005 in a two tailed student T-test. Each group has 10 mice. We used surface plasmon resonance to identify small molecule binders of Ly6K. We screened a panel of 2000 small molecules, obtained from the Developmental Therapeutic Program (DTP, NCI). […]

[2] = Preliminary experiments for maximum tolerated dose; format: in vivo; conditions: 5 mg/kg/ip
L1210 leukemia = conditions: up to 10 mg/kg/i.p.; cited from earlier work

Row | SMILES | SPR binding response to Ly6K (human Ly6K protein) | Kd (human Ly6K protein; SPR) | SPR binding response to Ly6E (Ly6E) | SPR binding response to Ly6D (Ly6D) | Effect on cell death ([1]; 2 μM) | Cell death ([1]; 100 μM, both control and Ly6K knockdown cells) | PD-L1 protein expression (PD-L1) | TGFβ1 induced phosphorylation of Smad2/3 (TGFβ1/Smad2/3 signaling) | IFNγ induced phosphorylation of Stat1 (IFNγ/Stat1 signaling) | 4T1 mammary tumor growth (4T1 mammary tumor) | Therapeutic benefit [2] | Cell growth ([1]; Ly6K knockdown MDA-MB-231 cells, 2 μM) | Cell growth ([1]; control MDA-MB-231 cells, 2 μM) | Visible toxicity [2] | Toxicity (L1210 leukemia)
1 | Oc1ccc(Cc2ccc(Cl)cc2)c(O)c1 [NSC11150, 4-(4-chlorobenzyl)benzene-1,3-diol] | binding response in dose dependent manner | 1600 nM | don't show binding response | don't show binding response | did not show significant effect | induced cell death | inhibition of PD-L1 expression | had no effect | inhibited | suppress 4T1 mammary tumor growth | therapeutic benefit |  |  |  | 
2 | CCS(=O)(=O)Nc1ccc(Nc2c3ccccc3nc3ccccc23)c(OC)c1.CS(=O)(=O)O [NSC243928, 4′-(9-Acridinylamino)-3′-methoxyethanesulfonanilide methanesulfonate] | binding response in dose dependent manner |  | don't show binding response | don't show binding response |  |  | did not show significant effect | inhibited | had no effect | suppress 4T1 mammary tumor growth | therapeutic benefit | lost its activity | diminished the growth | no visible toxicity | not found to be toxic

From patent US12134601B2, “Compounds for inhibiting LY6K and methods of using same” (The Henry M. Jackson Foundation for the Advancement of …, priority 2017, dated 2024)
